Among the data in patent publication US11116757B2 (priority 2015, dated 2021) are IC50 values, retold here.

This test has as its target DCN1-UBC12 interaction (Homo sapiens (Human), UniProt Q96GG9). The test is described as follows: biochemical. It is filed as binding. The conditions noted are these: read-out: TR-FRET IC50. A general note: Time-resolved FRET reads energy transfer from a long-lived donor to a nearby acceptor.

Read-outs that look alike come from different tables or passages of the source.

Sequence of DCN1-UBC12 interaction (Q96GG9 60-248 limits assumed): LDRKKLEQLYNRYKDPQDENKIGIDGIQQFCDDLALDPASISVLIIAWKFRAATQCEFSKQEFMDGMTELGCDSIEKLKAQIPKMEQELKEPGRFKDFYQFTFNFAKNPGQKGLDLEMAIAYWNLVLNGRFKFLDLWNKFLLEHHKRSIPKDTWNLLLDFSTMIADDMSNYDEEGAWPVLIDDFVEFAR

On to “1-Benzyl-1-(1-(Cyclohexylmethyl)Piperidin-4-yl)-3-(3-(Trifluoromethyl)Phenyl)Urea [A149]”, for which the half-inhibitory concentration (IC50) came to 5.25 µM.
Still for that read-out and setting: in the case of `CCCCN1CCC(CC(=O)OC)(NC(=O)Nc2cccc(C(F)(F)F)c2)CC1` [A254] it was over 60.1 µM; in that of `CCCN1CCC(N(CCC)C(=O)Nc2cccc(C(F)(F)F)c2)CC1` [A167, 1-Propyl-1-(1-Propylpiperidin-4-yl)-3-(3-(Trifluoromethyl)Phenyl)Urea], 10.5 µM; in that of `CCCC(C)N1CCC(N(Cc2ccccc2)C(=O)Nc2ccc(NC(C)=O)cc2)CC1` (stereo not shown) [A291], over 77.1 µM.
`O=C(Nc1ccc2c(c1)OCO2)NC1CCN(Cc2ccccc2)CC1` [B22]: the IC50 was over 103 µM.
Turning to `COCCN(C)C(=O)c1cnn(-c2nccc(-c3cccs3)n2)c1C` [E52], for the setting “Table 6, commercial compounds”, the IC50 was over 67.6 µM.
Consider `Cc1cccc(C2c3c(C)nn(C)c3NC(=O)C2NC(=O)c2ccccc2)c1` (stereo not shown) [F33], for which the concentration for half-maximal inhibition (IC50) (Table 7, commercial compounds) is over 80.3 µM.
Regarding `COc1ccccc1NC(=O)N(Cc1ccco1)C1CCN(C(C)=O)CC1` [B68], the half-inhibitory concentration (IC50) was over 67.6 µM.
In the case of `CCN(CC)CCNC(=O)c1cnn(-c2nccc(-c3cccs3)n2)c1COC` [E31], the IC50 (Table 6, commercial compounds) is over 67.6 µM.
With `O=C(Nc1cc(F)cc(C(F)(F)F)c1)N(Cc1ccccc1)C1CCN(Cc2cc[nH]n2)CC1` [A213], the IC50 is over 22.5 µM.
The same measure, in the same setting: then `O=C(Nc1ccc(CN2CCCCC2)cc1)Nc1cc(C(F)(F)F)ccc1Cl` [B29], with over 50.3 µM.
`CN1CCN(C(=O)c2cnn(-c3nccc(-c4cccs4)n3)c2C2CC2)CC1` [E33]: where the note is “Table 6, commercial compounds”, the IC50 is over 67.6 µM.
In the case of `CCCC(C)N1CCC(N(Cc2cccc(CNC(=O)CCl)c2)C(=O)Nc2cccc(C(F)(F)F)c2)CC1` (stereo not shown) [A256], the IC50 was over 60.4 µM.
Same read-out and setting: then `CCCc1ccc(NC(=O)N(Cc2ccccc2)C2CCN(C(C)CCC)CC2)cc1` (stereo not shown) [A66], with 0.47 µM; and `CCOC(=O)Cc1ccc(NC(=O)N(Cc2ccco2)C2CCN(C(C)=O)CC2)cc1` [B75], with over 67.6 µM.
On to `O=C(Nc1cccc([N+](=O)[O-])c1)C1CCN(C(=O)c2cccc3ccccc23)CC1` [C64], for which the half-inhibitory concentration (IC50) (Table 4, commercial compounds) is over 67.6 µM.
For `CSc1cccc(NC(=O)NC2CCN(Cc3ccccc3)CC2)c1` [B44], the half-inhibitory concentration (IC50) was over 64.5 µM.
Still for that read-out and setting: then `CCc1ccccc1NC(=O)NC1CCN(Cc2ccccc2)CC1` [B53], with over 67.6 µM.
As to `CCOc1ccc(NC(=O)C2CCN(C(=O)c3ccccc3Cl)CC2)cc1` [C48], where the note is “Table 4, commercial compounds”, the half-maximal inhibitory concentration (IC50) was over 67.6 µM.
Take `O=C(Nc1ccccc1Br)C1CCN(C(=O)c2ccccc2Cl)CC1` [C17]: the half-maximal inhibitory concentration (IC50) (Table 4, commercial compounds) was over 67.6 µM.
Regarding `O=C(Nc1ccn(Cc2ccccn2)n1)NC1CCN(Cc2ccccc2)CC1` [B33], the IC50 is over 55.4 µM.
Same read-out and setting: in the case of `CCCC(C)N1CCC(N(Cc2ccccc2)C(=O)Nc2ccc(C)cc2Cl)CC1` (stereo not shown) [A175] it was 13.6 µM; in that of `CCCN1CCC(N(CCC(C)C)C(=O)Nc2cccc(C(F)(F)F)c2)CC1` [A130, 1-Isopentyl-1-(1-Propylpiperidin-4-yl)-3-(3-(Trifluoromethyl)Phenyl)Urea], 2.96 µM.
Same read-out and setting: then `CCCC(C)N1CCC(N(Cc2ccccc2)C(=O)Nc2cc(Cl)cc(C(F)(F)F)c2)CC1` (stereo not shown) [A113], with 2.35 µM.
On the same count and under the same terms, in the case of `O=C(c1ccc(F)cc1)N1CCC(c2nc3ccccc3s2)CC1` [D15] it was over 46.2 µM.
With `COc1ccc(NC(=O)C2CCN(C(=O)c3cnn(-c4ccccc4)c3-n3cccc3)CC2)cc1` [C49], the IC50 (Table 4, commercial compounds) is over 67.6 µM.
With `Cn1ccc2cc(CN3CCC(N(Cc4ccccc4)C(=O)Nc4cc(F)cc(C(F)(F)F)c4)CC3)ccc21` [A205], the IC50 was over 20.8 µM.
As for `CCCCN1CCC(N(Cc2ccccc2)C(=O)Nc2cccc(F)c2)CC1` [A136], the concentration for half-maximal inhibition (IC50) is 3.57 µM.
Still for that read-out and setting: then `CCCC(C)N1CCC(N(Cc2ccccc2)C(=O)Nc2ccc(S(=O)(=O)Nc3ccc(OC)nn3)cc2)CC1` (stereo not shown) [A296], with over 83.4 µM; and `COc1cccc(CN2CCC(N(Cc3ccccc3)C(=O)Nc3cc(F)cc(C(F)(F)F)c3)CC2)c1` [A231], with over 28.9 µM.
As to `CCc1ccccc1NC(=O)N(Cc1ccco1)C1CCN(C(C)=O)CC1` [B74], the 50% inhibitory concentration (IC50) is over 67.6 µM.
In the case of `CC(=O)N1CCC(N(C(=O)Nc2cccc(C(F)(F)F)c2)C(C)C)CC1` [B65], the IC50 was over 67.6 µM.
The same measure, in the same setting: then `O=C(Nc1cccc2ccccc12)NC1CCN(Cc2ccccc2)CC1` [B39], with over 61.8 µM.
With `CCCC(C)N1CCC(N(Cc2ccccc2)C(=O)Nc2cc(F)cc(C(F)(F)F)c2)CC1` (stereo not shown) [A6], the 50% inhibitory concentration (IC50) came out at 0.058 µM.
Still for that read-out and setting: in the case of `CCCC(C)N1CCC(N(Cc2ccccc2)C(=O)Nc2ccc(-c3cccc(C(=O)OC)c3)cc2)CC1` (stereo not shown) [A116] it was 2.37 µM; in that of `O=C(Nc1cccc(C(F)(F)F)c1)N1CCN(C(c2ccccc2)c2ccccc2)CC1` [B40], over 62.8 µM; in that of `CCCC(C)N1CCC(N(Cc2ccccc2)C(=O)Nc2cc(F)c(F)cc2F)CC1` (stereo not shown) [A166], 10.1 µM.
Regarding `CCCN1CCN(C(=O)c2cnn(-c3nccc(-c4cccs4)n3)c2C)CC1` [E60], under “Table 6, commercial compounds”, the IC50 is over 68 µM.
On to `CCc1ccc(C2c3c(C)nn(C)c3NC(=O)C2NC(=O)c2ccc(OC)c(OC)c2)cc1` (stereo not shown) [F24], for which the 50% inhibitory concentration (IC50) (Table 7, commercial compounds) was over 67.6 µM.
With `CCOc1ccc(C(=O)NCC(=O)N2CCC(c3nc4ccccc4s3)CC2)cc1` [D33], the 50% inhibitory concentration (IC50) is over 67.6 µM.
On the same count and under the same terms, in the case of `C=CC(=O)NCCCN(C(=O)Nc1cccc(C(F)(F)F)c1)C1CCN(C(C)CCC)CC1` (stereo not shown) [A134] it was 3.34 µM; in that of `O=C(Nc1cccc(-n2cccc2)c1)NC1CCN(Cc2ccccc2)CC1` [A282, 1-(3-(1H-Pyrrol-1-yl)Phenyl)-3-(1-Benzylpiperidin-4-yl)Urea], over 71.3 µM.
The same measure, in the same setting: then `CCCC(C)N1CCC(N(Cc2ccccc2)C(=O)Nc2cc(Cl)ccc2Cl)CC1` (stereo not shown) [A152], with 6.27 µM; and `Cc1cccc(NC(=O)NC2CCN(C(=O)c3ccccc3)CC2)c1` [B111], with over 73.2 µM; and `Cc1cccc(C(=O)N2CCC(c3nc4ccccc4s3)CC2)c1` [D4], with 18 µM.
On to `O=C(Nc1cccc(C(F)(F)F)c1)C1CCN(C(=O)Cc2ccccc2)CC1` [C12], for which the half-maximal inhibitory concentration (IC50) (Table 4, commercial compounds) was over 65.9 µM.
In the case of `CCCCN1CCC(N(Cc2ccccc2)C(=O)Nc2cccc([N+](=O)[O-])c2)CC1` [A104], the IC50 amounted to 1.85 µM.
Still for that read-out and setting: in the case of `CCCC(C)N1CCC(N(Cc2ccccc2)C(=O)Nc2ccccc2N2CCOCC2)CC1` (stereo not shown) [A243] it was over 52.8 µM; in that of `CCCC(C)N1CCC(N(Cc2ccccc2)C(=O)Nc2ccc(Br)cc2C)CC1` (stereo not shown) [A165], 9.43 µM; in that of `CCCC(C)N1CCC(N(Cc2ccccc2)C(=O)Nc2ccc(Cl)cc2C(=O)OC)CC1` (stereo not shown) [A266], over 66.2 µM.
As to `C=CC(=O)NCc1cccc(CN(C(=O)Nc2cccc(C(F)(F)F)c2)C2CCN(C(C)CCC)CC2)c1` (stereo not shown) [drawing 845], the IC50 came out at 0.018 µM.
As to `C=CS(=O)(=O)NCc1cccc(CN(C(=O)Nc2cccc(C(F)(F)F)c2)C2CCN(C(C)CCC)CC2)c1` (stereo not shown) [drawing 849], the IC50 is under 0.01 µM.
For the compound `CCCC(C)N1CCC(N(Cc2ccccc2)C(=O)Nc2cccc(Cc3ccccc3)c2)CC1` (stereo not shown) [A23], the 50% inhibitory concentration (IC50) was determined as 0.14 µM.
With `Cc1nn(C)c2c1C(c1ccc(F)c(F)c1)C(NC(=O)c1ccc(Cl)cc1)C(=O)N2` (stereo not shown) [F26], the IC50 (Table 7, commercial compounds) was over 67.6 µM.
For the compound `CCN1CCN(C(=O)c2cnn(-c3ncc(C)c(-c4cccs4)n3)c2C2CC2)CC1` [E44], the IC50 (Table 6, commercial compounds) is over 67.6 µM.
As for `CC1CC(N(C)C(=O)Nc2ccccn2)CCN1Cc1ccccc1` (stereo not shown) [B106], the IC50 was over 71.5 µM.
On the same count and under the same terms, then `CCCC(C)N1CCC(N(Cc2ccccc2)C(=O)Nc2cc(Br)ccc2Cl)CC1` (stereo not shown) [A267], with over 66.9 µM.
Take `COCCN(C(=O)c1cnn(-c2nccc(-c3cccs3)n2)c1C)C(C)C` [E45]: the half-maximal inhibitory concentration (IC50) (Table 6, commercial compounds) is over 67.6 µM.
Regarding `O=C(c1ccc(Br)cc1)N1CCCC(c2nc3ccccc3s2)C1` (stereo not shown) [D27], the 50% inhibitory concentration (IC50) was over 67.6 µM.
As to `COCCC(=O)N1CCC(C(=O)Nc2ccc(-c3cc4ccccc4[nH]3)cc2)CC1` [C45], under “Table 4, commercial compounds”, the half-maximal inhibitory concentration (IC50) is over 67.6 µM.
`O=C(Nc1cccc(C(F)(F)F)c1)NC1CCN(Cc2ccc(F)cc2)CC1` [A172, 1-(1-(4-Fluorobenzyl)Piperidin-4-yl)-3-(3-(Trifluoromethyl)Phenyl)Urea]: the half-maximal inhibitory concentration (IC50) came out at 12.9 µM.
Take `O=C(Nc1cccc(C(F)(F)F)c1)NC1CCN(Cc2ccc(Cl)cc2)CC1` [A186, 1-(1-(4-Chlorobenzyl)Piperidin-4-yl)-3-(3-(Trifluoromethyl)Phenyl)Urea]: the 50% inhibitory concentration (IC50) was determined as 33.4 µM.
Same read-out and setting: in the case of `CCCC(C)N1CCC(N(Cc2ccccc2)C(=O)Nc2cc(C(F)(F)F)ccc2F)CC1` (stereo not shown) [A154] it was 6.51 µM.
Turning to `COc1ccc(C(=O)N2CCC(C(=O)Nc3cccc([N+](=O)[O-])c3)CC2)c2ccccc12` [C60], the IC50 (Table 4, commercial compounds) was over 67.6 µM.
With `CCCN1CCC(N(CC(C)C)C(=O)Nc2cccc(C(F)(F)F)c2)CC1` [A146, 1-Isobutyl-1-(1-Propylpiperidin-4-yl)-3-(3-(Trifluoromethyl)Phenyl)Urea], the IC50 was determined as 4.81 µM.
Same read-out and setting: then `O=C(Nc1ccc(CN2CCOCC2)cc1)Nc1cccc(C(F)(F)F)c1` [B108], with over 72.8 µM; and `CN1CCC(NC(=O)Nc2cccc(C(F)(F)F)c2)CC1` [B100], with over 68.1 µM.
As to `CCN(CCN(C)C)C(=O)c1cnn(-c2ncc(C)c(-c3cccs3)n2)c1COC` [E46], the 50% inhibitory concentration (IC50) (Table 6, commercial compounds) was over 67.6 µM.
As for `Cc1cccc(C(=O)NC2C(=O)Nc3c(c(C)nn3C)C2c2ccc(C(C)(C)C)cc2)c1` (stereo not shown) [F13], where the note is “Table 7, commercial compounds”, the IC50 was over 67.6 µM.
As for `CCCC(C)N1CCC(N(Cc2ccccc2)C(=O)Nc2ccc(Oc3ccccc3)c(C(F)(F)F)c2)CC1` (stereo not shown) [A75], the half-maximal inhibitory concentration (IC50) was determined as 0.731 µM.
Still for that read-out and setting: in the case of `O=C(Nc1cc(F)cc(C(F)(F)F)c1)N(Cc1ccccc1)C1CCN(Cc2cc(F)c(F)c(F)c2)CC1` [A206] it was over 20.9 µM.
On the same count and under the same terms, in the case of `O=C(Nc1ccc(C(=O)N2CCCC2)cc1)Nc1cccc(C(F)(F)F)c1` [B112] it was over 73.5 µM.
For `CCN(CC)CCNC(=O)c1cnn(-c2nccc(-c3cccs3)n2)c1C` [E54], the concentration for half-maximal inhibition (IC50) (Table 6, commercial compounds) is over 67.6 µM.
The same measure, in the same setting: then `CN(C)CC(C)(C)CNC(=O)c1cnn(-c2nccc(-c3cccs3)n2)c1C1CC1` [E37], with over 67.6 µM.
As for `Cc1cccc(CN(C(=O)Nc2cccc(C(F)(F)F)c2)C2CCN(Cc3ccccc3)CC2)n1` [B5], the IC50 came to 5.64 µM.
The same measure, in the same setting: then `CCCC(C)N1CCC(N(Cc2ccccc2)C(=O)Nc2ccc(C(F)(F)F)cc2)CC1` (stereo not shown) [A41], with 0.237 µM.

By IC50 is commonly meant the concentration that inhibits the measured activity by half.
